For this assay, the target named is T1, human APJ receptor (Homo sapiens, UniProt P35414).
T1 construct: expressed in transfected cells
T1 sequence (P35414 1-380): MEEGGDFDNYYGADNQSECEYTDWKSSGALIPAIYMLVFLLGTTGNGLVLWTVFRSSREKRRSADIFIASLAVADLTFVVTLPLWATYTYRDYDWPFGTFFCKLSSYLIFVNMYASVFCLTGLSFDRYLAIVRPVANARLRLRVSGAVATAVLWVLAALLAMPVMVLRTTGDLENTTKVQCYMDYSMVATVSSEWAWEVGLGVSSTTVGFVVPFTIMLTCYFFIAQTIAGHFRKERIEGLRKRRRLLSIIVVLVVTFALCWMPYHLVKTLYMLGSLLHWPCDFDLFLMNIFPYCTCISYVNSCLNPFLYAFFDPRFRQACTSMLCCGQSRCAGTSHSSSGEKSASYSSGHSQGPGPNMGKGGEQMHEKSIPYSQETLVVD
Briefly: Intracellular cAMP accumulation assay (APJ hcAMP, HTRF). In kind it is cell-based. The conditions noted are these: HEK293 cells stably expressing human APJ receptor; inhibition of forskolin-mediated cAMP production; read-out: Human APJ cAMP EC50 Potency range. How it is done:
Intracellular cAMP Accumulation Assay
HEK293 cells stably expressing human APJ receptor were used to assess the activity of compounds. Cultured cells were detached and resuspended in the cAMP Homogeneous Time-Resolved Fluorescence (HTRF) assay buffer (Cisbio cat; #62AM4PEJ). The assay was performed in 384-well assay plates (Perkin-Elmer; cat #6008289) according to assay protocol provided by the manufacturer. Serial dilutions of a compound together with assay buffer containing […] IBMX and 2 μM forskolin were added to each well containing 5,000 cells and incubated for 30 minutes at room temperature. Subsequently, cAMP D2 reagent was added in the lysis buffer followed by the EuK antibody (Cisbio; cat #62AM4PEJ) and incubated for 60 min. The fluorescence emission ratio was measured using fluorometer. The intracellular cAMP concentrations (compound-stimulated inhibition of forskolin-mediated cAMP production) were calculated by extrapolation from a standard curve using known cAMP concentrations. The EC50 values were obtained by fitting the data to a sigmoidal concentration-response curve with variable slope. The maximal achievable inhibition of forskolin-induced cAMP levels (Ymax) for each compound was expressed as relative percentage of inhibition attained using pyroglutamated apelin-13 ((Pyr1)apelin-13) peptide, which was set to 100%.
The examples disclosed below were tested in the APJ in vitro assays described above and were found having human APJ cyclic AMP (hcAMP) activity. The EC50 value of each compound is presented at the end of the example description.
The biological activity of the exemplified compounds of this invention determined by the assay described above is shown at the end of each example.
(In general: Changes in cAMP serve as a functional read-out for many G protein-coupled receptors.)

These results are taken from patent publication US10889565B2, “4-hydroxy-3-sulfonylpyridin-2(1H)-ones as APJ receptor agonists” (BRISTOL-MYERS SQUIBB COMPANY, priority 2016, dated 2021).

By EC50 is commonly meant the concentration that produces a half-maximal response.

For the compound `CCCCc1[nH]c(=O)c(S(=O)(=O)c2cccc[n+]2[O-])c(O)c1-c1c(OC)cccc1OC` [Example 18, 6-butyl-5-(2,6-dimethoxy-phenyl)-4-hydroxy-3-((1-hydroxy-1l4-pyridin-2-yl)sulfonyl) pyridin-2(1H)-one], the EC50 fell in the range of 100 to 300 nM.

For the compound `COc1cccc(OC)c1-c1c(-c2ccc(F)cc2)[nH]c(=O)c(S(=O)(=O)c2ccc(-c3ccc(F)nc3C)cc2)c1O` [Example 17, 5-(2,6-dimethoxy-phenyl)-3-((4-(6-fluoro-2-methyl-pyridin-3-yl)phenyl)sulfonyl)-6-(4-fluoro-phenyl)-4-hydroxy-pyridin-2(1H)-one], the EC50 is 0.01 to 10 nM.

Regarding `CCOCc1[nH]c(=O)c(S(=O)(=O)c2ccc(-n3cc(Cl)cc(Cl)c3=O)cc2)c(O)c1-c1c(OC)cccc1OC` [Example 25, 3-((4-(3,5-dichloro-2-oxopyridin-1(2H)-yl)phenyl)sulfonyl)-5-(2,6-dimethoxy-phenyl)-6-(ethoxymethyl)-4-hydroxy-pyridin-2(1H)-one], the EC50 is 10 to 100 nM.

Turning to `CCCCc1[nH]c(=O)c(S(=O)(=O)c2ccc(-c3ccnc(F)c3C)cn2)c(O)c1-c1c(OC)cccc1OC` [Example 33, 6-butyl-5-(2,6-dimethoxy-phenyl)-3-((2′-fluoro-3′-methyl-[3,4′-bipyridin]-6-yl)sulfonyl)-4-hydroxy-pyridin-2(1H)-one], the EC50 fell in the range of 0.01 to 10 nM.

Turning to `CCOCc1[nH]c(=O)c(S(=O)(=O)c2ccc(-c3ccc(F)cc3)cc2)c(O)c1-c1c(OC)cccc1OC` [Example 9, 5-(2,6-dimethoxy-phenyl)-6-(ethoxymethyl)-3-((4′-fluoro-[1,1′-biphenyl]-4-yl)sulfonyl)-4-hydroxypyridin-2(1H)-one], the EC50 is 0.01 to 10 nM.

With `C=C(C)c1ccc(S(=O)(=O)c2c(O)c(-c3c(OC)cccc3OC)c(CCCC)[nH]c2=O)nc1` [Example 49, 6-Butyl-5-(2,6-dimethoxyphenyl)-4-hydroxy-3-((5-(prop-1-en-2-yl)pyridin-2-yl)sulfonyl)pyridin-2(1H)-one], the EC50 fell in the range of 0.01 to 10 nM.

With `CCCCc1[nH]c(=O)c(S(=O)(=O)c2ccc(-c3ccncc3C)cn2)c(O)c1-c1c(OC)cccc1OC` [Example 34, 6-butyl-5-(2,6-dimethoxy-phenyl)-4-hydroxy-3-((3′-methyl-[3,4′-bipyridin]-6-yl)sulfonyl) pyridin-2(1H)-one], the EC50 lay in the range of 0.01 to 10 nM.

`CCCCc1[nH]c(=O)c(S(=O)(=O)c2ccc(-c3ccnc4[nH]ccc34)cn2)c(O)c1-c1c(OC)cccc1OC` [Example 47, 3-((5-(1H-pyrrolo[2,3-b]pyridin-4-yl)pyridin-2-yl)sulfonyl)-6-butyl-5-(2,6-dimethoxy-phenyl)-4-hydroxy-pyridin-2(1H)-one]: the EC50 lay in the range of 0.01 to 10 nM.

On to `CCCCc1[nH]c(=O)c(S(=O)(=O)c2ccc(-c3ccnc(N4CCOCC4)c3F)cn2)c(O)c1-c1c(OC)cccc1OC` [Example 40, 6-butyl-5-(2,6-dimethoxy-phenyl)-3-((3′-fluoro-2′-morpholino-[3,4′-bipyridin]-6-yl)sulfonyl)-4-hydroxypyridin-2(1H)-one], for which the EC50 was 0.01 to 10 nM.

In the case of `CCCCc1[nH]c(=O)c(S(=O)(=O)c2ccc(NC(=O)c3ccc(F)cc3)cc2)c(O)c1-c1c(OC)cccc1OC` [Example 30, N-(4-((6-butyl-5-(2,6-dimethoxyphenyl)-4-hydroxy-2-oxo-1,2-dihydropyridin-3-yl)sulfonyl)phenyl)-4-fluorobenzamide], the EC50 is 0.01 to 10 nM.

Consider `CCCCc1[nH]c(=O)c(S(=O)(=O)c2ccc(-c3ccc(F)cc3)cc2)c(O)c1-c1c(OC)cccc1OC` [Example 13, 6-butyl-5-(2,6-dimethoxy-phenyl)-3-((4′-fluoro-[1,1′-biphenyl]-4-yl)sulfonyl)-4-hydroxy-pyridin-2(1H)-one], for which the half-maximal effective concentration (EC50) is 10 to 100 nM.

Regarding `COc1cccc(OC)c1-c1c(-c2ccc(F)cc2)[nH]c(=O)c(S(=O)(=O)c2ccc(-c3ccnc(F)c3C)cc2)c1O` [Example 16, 5-(2,6-dimethoxy-phenyl)-3-((4-(2-fluoro-3-methyl-pyridin-4-yl)phenyl)sulfonyl)-6-(4-fluoro-phenyl)-4-hydroxy-pyridin-2(1H)-one], the concentration giving a half-maximal response (EC50) lay within 0.01 to 10 nM.

For the compound `CCOCc1[nH]c(=O)c(S(=O)(=O)c2ccc(Br)cc2)c(O)c1-c1c(OC)cccc1OC` [Example 14, 3-((4-bromophenyl)sulfonyl)-5-(2,6-dimethoxy-phenyl)-6-(ethoxymethyl)-4-hydroxy-pyridin-2(1H)-one], the half-maximal effective concentration (EC50) lay in the range of 10 to 100 nM.

`CCCCc1[nH]c(=O)c(S(=O)(=O)c2ccc(-c3ccc(OC(F)(F)F)cc3)cn2)c(O)c1-c1c(OC)cccc1OC` [Example 35, 6-butyl-5-(2,6-dimethoxy-phenyl)-4-hydroxy-3-((5-(4-(trifluoro-methoxy)phenyl)pyridin-2-yl)sulfonyl) pyridin-2(1H)-one]: the EC50 fell in the range of 0.01 to 10 nM.

With `CCOCc1[nH]c(=O)c(S(=O)(=O)c2ccc(C3CC3)cc2)c(O)c1-c1c(OC)cccc1OC` [Example 11, 3-((4-cyclo-propylphenyl)sulfonyl)-5-(2,6-dimethoxy-phenyl)-6-(ethoxymethyl)-4-hydroxy-pyridin-2(1H)-one], the EC50 is 0.01 to 10 nM.

Take `CCCCc1[nH]c(=O)c(S(=O)(=O)c2ccc(-c3cncc(F)c3)cc2)c(O)c1-c1c(OC)cccc1OC` [Example 4, 6-butyl-5-(2,6-dimethoxy-phenyl)-3-((4-(5-fluoro-pyridin-3-yl)phenyl)sulfonyl)-4-hydroxy-pyridin-2(1H)-one]: the EC50 is 0.01 to 10 nM.

`CCCCc1[nH]c(=O)c(S(=O)(=O)c2ccc(-c3ccnc(OC)c3)cn2)c(O)c1-c1c(OC)cccc1OC` [Example 44, 6-butyl-5-(2,6-dimethoxy-phenyl)-4-hydroxy-3-((2′-methoxy-[3,4′-bipyridin]-6-yl)sulfonyl) pyridin-2(1H)-one]: the concentration giving a half-maximal response (EC50) lay in the range of 0.01 to 10 nM.

In the case of `CCCCc1[nH]c(=O)c(S(=O)(=O)c2ccc(-c3ccc(F)cc3)cn2)c(O)c1-c1c(OC)cccc1OC` [Example 43, 6-butyl-5-(2,6-dimethoxy-phenyl)-3-((5-(4-fluorophenyl)pyridin-2-yl)sulfonyl)-4-hydroxypyridin-2(1H)-one], the EC50 lay in the range of 0.01 to 10 nM.

For `COc1cccc(OC)c1-c1c(-c2ccc(F)cc2)[nH]c(=O)c(S(=O)(=O)c2ccc(-n3cc(Cl)ccc3=O)cc2)c1O` [Example 23, 3-((4-(5-chloro-2-oxopyridin-1(2H)-yl)phenyl)sulfonyl)-5-(2,6-dimethoxy-phenyl)-6-(4-fluorophenyl)-4-hydroxy-pyridin-2(1H)-one], the EC50 is 0.01 to 10 nM.

Take `CCOCc1[nH]c(=O)c(S(=O)(=O)c2ccc(-c3ccc(F)nc3)cc2)c(O)c1-c1c(OC)cccc1OC` [Example 12, 5-(2,6-dimethoxy-phenyl)-6-(ethoxymethyl)-3-((4-(6-fluoro-pyridin-3-yl)phenyl)sulfonyl)-4-hydroxy-pyridin-2(1H)-one]: the EC50 was in the range of 0.01 to 10 nM.

With `CCCCc1[nH]c(=O)c(S(=O)(=O)c2ccc(NC(=O)Nc3ccc(F)cc3)cc2)c(O)c1-c1c(OC)cccc1OC` [Example 31, 1-(4-((6-butyl-5-(2,6-dimethoxyphenyl)-4-hydroxy-2-oxo-1,2-dihydropyridin-3-yl)sulfonyl)phenyl)-3-(4-fluorophenyl)urea], the 50% effective concentration (EC50) lay within 0.01 to 10 nM.

As to `CCCCc1[nH]c(=O)c(S(=O)(=O)c2ccc(Nc3ccc(F)nc3)cc2)c(O)c1-c1c(OC)cccc1OC` [Example 28, 6-butyl-5-(2,6-dimethoxyphenyl)-3-((4-((6-fluoropyridin-3-yl)amino)phenyl)sulfonyl)-4-hydroxypyridin-2(1H)-one], the EC50 is 0.01 to 10 nM.

`CCCCc1[nH]c(=O)c(S(=O)(=O)c2ccc(-n3cc(C)ccc3=O)cc2)c(O)c1-c1c(OC)cccc1OC` [Example 20, 6-butyl-5-(2,6-dimethoxy-phenyl)-4-hydroxy-3-((4-(5-methyl-2-oxopyridin-1(2H)-yl)phenyl)sulfonyl) pyridin-2(1H)-one]: the concentration giving a half-maximal response (EC50) was in the range of 0.01 to 10 nM.
